Reference: PMC5915280, “Improvement of kynurenine aminotransferase-II inhibitors guided by mimicking sulfate esters” (PLoS ONE, 2018)

Biological target: T1, KAT-II (kynurenine aminotransferase-II) (Homo sapiens, UniProt Q8N5Z0)
T1 construct: gene AADAT; recombinant KAT-II with a hexa-histidine tag, expressed in E. coli Rosetta 2
Test: HPLC assay of kynurenic acid formation with purified recombinant enzyme
Type: biochemical

T1 sequence (Q8N5Z0 30-425): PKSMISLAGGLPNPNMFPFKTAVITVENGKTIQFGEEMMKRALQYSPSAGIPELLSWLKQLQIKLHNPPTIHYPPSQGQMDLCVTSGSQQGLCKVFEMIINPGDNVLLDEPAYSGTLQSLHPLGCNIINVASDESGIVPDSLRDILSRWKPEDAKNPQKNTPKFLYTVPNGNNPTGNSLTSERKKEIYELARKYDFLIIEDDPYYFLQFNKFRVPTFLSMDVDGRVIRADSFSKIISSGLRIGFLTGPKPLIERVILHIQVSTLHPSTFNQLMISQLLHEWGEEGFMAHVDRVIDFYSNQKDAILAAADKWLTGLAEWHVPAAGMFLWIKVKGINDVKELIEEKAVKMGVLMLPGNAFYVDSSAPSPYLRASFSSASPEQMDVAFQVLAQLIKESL

IC50 [µM] | Structure (SMILES)
73.8 | NS(=O)(=O)c1ccc(N2C(=O)c3cc(Cl)c(Cl)cc3C2=O)cc1 [JN-01, 4-(5,6-dichloro-1,3-dioxo-1,3-dihydro-2H-isoindol-2-yl)benzenesulfonamide]
113 | NS(=O)(=O)c1ccc(CCN2C(=O)c3cc(Cl)c(Cl)cc3C2=O)cc1 [JN-02, 4-(5,6-dichloro-1,3-dioxo-1,3-dihydro-2H-isoindol-2-yl)ethyl benzenesulfonamide]
